Results on one compound are retold here after publication PMC8876215, “Anticancer Activity of the Choline Kinase Inhibitor PL48 Is Due to Selective Disruption of Choline Metabolism and Transport Systems in Cancer Cell Lines” (Pharmaceutics, 2022).

The target in the experiment is T1, ChoKα1 (choline kinase α1) (Homo sapiens, UniProt P35790).
T1 construct: gene CHKA; truncated form of ChoKα1 (Δ75–457), N-terminal 6x His-tag
Briefly: radiometric assay: [methyl-14C]choline to phosphocholine by purified recombinant enzyme, TLC and scintillation counting. Type of experiment: biochemical.

T1 sequence (P35790 75-457): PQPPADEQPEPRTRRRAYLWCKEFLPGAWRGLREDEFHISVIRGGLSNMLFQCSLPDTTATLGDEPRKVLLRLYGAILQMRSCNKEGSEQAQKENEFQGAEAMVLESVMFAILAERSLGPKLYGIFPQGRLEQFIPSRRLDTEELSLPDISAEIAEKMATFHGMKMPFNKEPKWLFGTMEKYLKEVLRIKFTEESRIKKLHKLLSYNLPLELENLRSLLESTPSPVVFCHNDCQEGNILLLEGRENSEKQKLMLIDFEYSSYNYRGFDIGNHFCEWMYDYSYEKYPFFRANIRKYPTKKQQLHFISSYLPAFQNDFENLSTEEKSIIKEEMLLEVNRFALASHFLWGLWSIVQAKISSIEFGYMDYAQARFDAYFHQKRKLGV

As for `Clc1ccc2c(N3CCCC3)cc[n+](Cc3ccc(SCCSc4ccc(C[n+]5ccc(N6CCCC6)c6ccc(Cl)cc65)cc4)cc3)c2c1` [PL48], the IC50 came to 658 ± 67 nM.

A word on the IC50: it is the concentration that inhibits the measured activity by half.
